# Test results from article PMC11769294, “(E)-1-(3-(3-Hydroxy-4-Methoxyphenyl)-1-(3,4,5-Trimethoxyphenyl)allyl)-1H-1,2,4-Triazole and Related Compounds: Their Synthesis and Biological Evaluation as Novel Antimitotic Agents Targeting Breast Cancer” (Pharmaceuticals, 2025).
# Read-outs that look alike come from different tables or passages of the source.
# Key:
# [1] = system: A549/ATCC (Non-Small Cell Lung Cancer); assay: NCI60 screen (SRB); type: cell-based, human; conditions: 48 h; for growth percent: one dose 10 µM
# RPMI-8226 (Leukemia) = assay: NCI60 screen (SRB); type: cell-based, human; conditions: 48 h; for growth percent: one dose 10 µM
# SW-620 (Colon Cancer) = assay: NCI60 screen (SRB); type: cell-based, human; conditions: for growth percent: one dose 10 µM; for GI50: five-dose
# COLO 205 (Colon Cancer) = assay: NCI60 screen (SRB); type: cell-based, human; conditions: 48 h; for growth percent: one dose 10 µM
# BT-549 (Breast Cancer) = assay: NCI60 screen (SRB); type: cell-based, human; conditions: for growth percent: one dose 10 µM; for GI50: five-dose
# M14 (Melanoma) = assay: NCI60 screen (SRB); type: cell-based, human; conditions: 48 h; for growth percent: one dose 10 µM
# MDA-MB-435 (Melanoma) = assay: NCI60 screen (SRB); type: cell-based, human; conditions: 48 h; for growth percent: one dose 10 µM
# UO-31 (Renal Cancer) = assay: NCI60 screen (SRB); type: cell-based, human; conditions: 48 h; for growth percent: one dose 10 µM
# [2] = system: MCF-7 breast cancer cells; assay: alamarBlue cell viability assay; type: cell-based; conditions: Homo sapiens, MCF7, MCF-7
# Experimental: Figure 5 Preliminary cell viability data for Series 1: (A) compounds 22a–22g and chalcone 20b and Series 2: (B) compounds 23a–e and chalcone 20b in MCF-7 breast cancer cells. Cell proliferation of MCF-7 cells was determined with an alamarBlue assay (seeding density 2.5 × 10^4 cells/mL per well for 96-well plates). Compound concentrations of either 1 or 0.1 μM for 72 h were used to treat the cells (in triplicate) with control wells containing vehicle ethanol (1% v/v). The mean value ± SEM for three independent experiments is shown. The positive controls used are CA-4 and phenstatin (1.0 μM and 0.1 μM). Statistical analysis was performed using One-way ANOVA with the Sidak multiple comparison test (***, p < 0.001).
# HL-60 cells were suspension cells and the seeding density for the viability assay was 25,000 cells/mL. MCF-7 cells (adherent) were cultured in Minimum Essential Media (MEM) with GlutaMAX™-I, supplemented with 1% (v/v) non-essential amino acids, 10% (v/v) fetal bovine serum (FBS), purchased from BD Biosciences (Edmund Halley Road, Oxford, UK), and 1% (v/v) penicillin/streptomycin 5000 U/mL. The MCF-7 cells used in the screening of the compounds during these experiments were mycoplasma-free. The seeding density of MCF-7 in the viability assay was 25,000 cells/mL and 50,000 cells/mL in the FACS assay. Normal breast cells (MCF-10A) (adherent) were cultured in Dulbecco’s Modified Eagle Medium: Nutrient Mixture F-12 (DMEM/F12; Gibco) supplemented with 5% horse serum (Invitrogen, Waltham, MA, USA), 20 ng/mL epidermal growth factor (Merck Millipore, Burlington, MA, USA), 0.5 μg/mL hydrocortisone (Sigma, Kanagawa, Japan), 100 ng/mL cholera toxin (Sigma), 10 μg/mL insulin (Sigma), and penicillin/streptomycin 5000 U/mL (1%) (Gibco, Waltham, MA, USA). […] MDA-MB-231 cells were cultured in Dulbecco’s Modified Eagle Medium, which was supplemented with 10% (v/v) fetal bovine serum (FBS) and 1% (v/v) penicillin/streptomycin 5000 U/mL. When not in use, all cells were kept in liquid nitrogen and frozen in a freezing media made of 90% FBS and 10% DMSO. All cells were grown in an atmosphere of 5% CO2/95% air in T75 culture flasks. The media was changed every 2–3 days and media was always prewarmed to 37 °C. All were sub-cultured every 3–4 days by trypsinization using TrypLE™ Express enzyme when confluence was reached to allow growth, prevent excessive cell death, and minimize the risk of infections derived by over-confluence. For the cell viability assay, the number of cells per milliliter was 25,000 cells/mL while the FACS assay utilized 50,000 cells/mL. Cells were maintained at 37 °C in 5% CO2 in a humidified incubator.
# The biochemical assays were performed in triplicate and on at least three independent occasions to facilitate the determination of mean values. For the viability assay, cells were grown until 80% confluent. Adherent cells such as MCF-7, MDA-MB-231, and MCF-10A were trypsinized to detach them from the flask, counted as previously described, and seeded in 96 well plates with a seeding density of 25,000 cells /mL (200 µL of suspension in each well so that the final number of cells per well was 5000) and 1 × 10^4 cells/well seeding density for suspension HL-60 cells. Adherent cells were incubated for 24 h after being seeded in the 96 well plate and treated on the following day, while suspension cells were treated on the same day of the seeding. In both cases, the incubation time after the treatment with the drug was 72 h. After 68 h incubation, the AlamarBlue was added (20 µL in each well) and the incubation time was completed. After 72 h, the change in color was measured by spectrofluorimetry at an excitation wavelength of 544 nm and emission wavelength of 590 nm. AlamarBlue is a cell viability indicator containing a compound called resazurin. AlamarBlue is water soluble, stable in culture media, non-toxic, and is permeable through the cell membrane. […]
# SK-OV-3 (Ovarian Cancer) = assay: NCI60 screen (SRB); type: cell-based, human; conditions: 48 h; for growth percent: one dose 10 µM
# SK-MEL-28 (Melanoma) = assay: NCI60 screen (SRB); type: cell-based, human; conditions: 48 h; for growth percent: one dose 10 µM
# [3] = system: HOP-62 (Non-Small Cell Lung Cancer); assay: NCI60 screen (SRB); type: cell-based, human; conditions: 48 h; for growth percent: one dose 10 µM
# T-47D (Breast Cancer) = assay: NCI60 screen (SRB); type: cell-based, human; conditions: 48 h; for growth percent: one dose 10 µM
# HT29 (Colon Cancer) = assay: NCI60 screen (SRB); type: cell-based, human; conditions: 48 h; for growth percent: one dose 10 µM
# HCT-116 (Colon Cancer) = assay: NCI60 screen (SRB); type: cell-based, human; conditions: 48 h; for growth percent: one dose 10 µM
# K-562 (Leukemia) = assay: NCI60 screen (SRB); type: cell-based, human; conditions: 48 h; for growth percent: one dose 10 µM
# breast cancer panel = assay: NCI60 screen (SRB), panel mean; type: cell-based, human; conditions: BC panel; one dose 10 µM; 48 h
# ACHN (Renal Cancer) = assay: NCI60 screen (SRB); type: cell-based, human; conditions: 48 h; for growth percent: one dose 10 µM
# PC-3 (Prostate Cancer) = assay: NCI60 screen (SRB); type: cell-based, human; conditions: 48 h; for growth percent: one dose 10 µM
# [4] = Homo sapiens, five-dose, read-out: IC50 (cell marked * in GI50 column)
smiles,measurement,setting,value
"COc1ccc(/C=C/C(c2cc(OC)c(OC)c(OC)c2)n2cncn2)cc1 (centres unmarked) [Compound 22a, (E)-1-(3-(4-Methoxyphenyl)-1-(3,4,5-trimethoxyphenyl)allyl)-1H-1,2,4-triazole]",growth percent,[1],35.48%
same,growth percent,RPMI-8226 (Leukemia),50.84%
same,growth percent,SW-620 (Colon Cancer); 48 h,26.63%
same,growth percent,COLO 205 (Colon Cancer),30.72%
same,growth percent,BT-549 (Breast Cancer); 48 h,45.45%
same,growth percent,M14 (Melanoma),17.86%
same,growth percent,MDA-MB-435 (Melanoma),−9.62%
same,growth percent,UO-31 (Renal Cancer),64.39%
same,viability at 1 µM,"[2]; 72 h, read-out: viable cells",60%
same,growth percent,SK-OV-3 (Ovarian Cancer),35.55%
same,growth percent,SK-MEL-28 (Melanoma),62.59%
same,growth percent,[3],41.84%
same,growth percent,T-47D (Breast Cancer),30.79%
same,growth percent,HT29 (Colon Cancer),4.96%
same,growth percent,HCT-116 (Colon Cancer),21.99%
same,growth percent,K-562 (Leukemia),17.72%
same,mean growth percentage,breast cancer panel,40.1%
same,growth percent,ACHN (Renal Cancer),57.45%
same,growth percent,PC-3 (Prostate Cancer),31.20%
"COc1ccc(/C=C/C(c2cc(OC)c(OC)c(OC)c2)n2cncn2)cc1O (centres unmarked) [Compound 22b, (E)-5-(3-(1H-1,2,4-Triazol-1-yl)-3-(3,4,5-trimethoxyphenyl)prop-1-en-1-yl)-2-methoxyphenol]",GI50,"[1]; Homo sapiens, five-dose",4560 nM
same,growth percent,[1],40.13%
same,GI50,"RPMI-8226 (Leukemia); Homo sapiens, five-dose",37 nM
same,growth percent,RPMI-8226 (Leukemia),19.89%
same,GI50,"SW-620 (Colon Cancer); Homo sapiens, SW-620, 48 h",39 nM
same,GI50,SW-620 (Colon Cancer); 48 h,39.4 nM
same,growth percent,SW-620 (Colon Cancer); 48 h,27.62%
same,GI50,"COLO 205 (Colon Cancer); Homo sapiens, five-dose",3660 nM
same,growth percent,COLO 205 (Colon Cancer),60.64%
same,GI50,"BT-549 (Breast Cancer); Homo sapiens, BT-549, 48 h",71 nM
same,GI50,BT-549 (Breast Cancer); 48 h,71.2 nM
same,growth percent,BT-549 (Breast Cancer); 48 h,36.59%
same,GI50,"M14 (Melanoma); Homo sapiens, five-dose",28.7 nM
same,growth percent,M14 (Melanoma),−12.29%
same,GI50,"MDA-MB-435 (Melanoma); Homo sapiens, five-dose",18.3 nM
same,growth percent,MDA-MB-435 (Melanoma),−32.99%
same,IC50,UO-31 (Renal Cancer); [4],> 100000 nM
same,growth percent,UO-31 (Renal Cancer),54.20%
same,IC50,[2],390 nM
same,viability at 0.5 µM,"[2]; 0.5 μM, 72 h, Figure 9C",70%
same,viability at 1 µM,"[2]; 72 h, Figure 9C, read-out: cell viability",30%
same,viability at 1 µM,"[2]; 72 h, read-out: viable cells",40%
same,viability at 10 µM,"[2]; 10 μM, 72 h, Figure 9C",20%
same,IC50,[2]; 72 h,385 ± 120 nM
same,IC50,SK-OV-3 (Ovarian Cancer); [4],> 100000 nM
same,growth percent,SK-OV-3 (Ovarian Cancer),12.67%
same,GI50,"SK-MEL-28 (Melanoma); Homo sapiens, five-dose",3620 nM
same,growth percent,SK-MEL-28 (Melanoma),59.08%
same,IC50,"[3]; Homo sapiens, five-dose, read-out: IC50 (cell marked * in GI50 column) (converted)",30200 nM
same,growth percent,[3],22.52%
same,GI50,"T-47D (Breast Cancer); Homo sapiens, T47D, five-dose",> 100000 nM
same,growth percent,T-47D (Breast Cancer),34.38%
same,GI50,"HT29 (Colon Cancer); Homo sapiens, HT-29, five-dose",3680 nM
same,growth percent,HT29 (Colon Cancer),41.01%
same,GI50,"HCT-116 (Colon Cancer); Homo sapiens, five-dose",41 nM
same,growth percent,HCT-116 (Colon Cancer),10.52%
same,GI50,"K-562 (Leukemia); Homo sapiens, K562, five-dose",32 nM
same,growth percent,K-562 (Leukemia),8.05%
same,mean growth percentage,breast cancer panel,29.1%
same,GI50,"ACHN (Renal Cancer); Homo sapiens, five-dose",57.9 nM
same,growth percent,ACHN (Renal Cancer),63.11%
same,GI50,"PC-3 (Prostate Cancer); Homo sapiens, five-dose",36 nM
same,growth percent,PC-3 (Prostate Cancer),23.47%
